For one assay, the system named is CKD model. Put plainly: Folic acid CKD model, kidney size after harvesting. Format: in vivo. The conditions noted are these: folic acid CKD mice; 10 mg/kg, Navi oral, nanoparticles IV. The procedure: This example was an animal study that created a CKD model by injecting 250 mg/kg folic acid intraperitonially (single injection). After 15 days the treatment started. The mice were divided in 5 groups of untreated, healthy, Fausidil, PLGA-Navitoclax, and PLGA-AT2-Navitoclax. FIG. 5: Figure: Image of the kidney after harvesting. The kidney from different treatment groups: A-Healthy control 510, B-Untreated control 520, C-Navi(10 mg/kg oral) 530, D-Fausidil(10 mg/kg IP) 540, E-PLGA-Navi(10 mg/kg IV) 550, F-PLGA-AT2-Navi(10 mg/kg IV) 560. FIGS. 6A-6B: The size of the untreated kidney shrunk by 42.46% (p-value 0.0062) than the healthy control (A). […] The weight of kidney (B) was also measured in gm and the weight 620 of the kidney treated with PLGA-AT2-Navi.

For a further assay, the system named is Bcl2. Kind of assay: Western blot analysis from the kidney sample, Bcl2. Format: in vivo, mice. The conditions noted are these: 10 mg/kg, compared with other groups. The protocol:
This example was an animal study that created a CKD model by injecting 250 mg/kg folic acid intraperitonially (single injection). After 15 days the treatment started. The mice were divided in 5 groups of untreated, healthy, Fausidil, PLGA-Navitoclax, and PLGA-AT2-Navitoclax.
FIG. 8: Western blot analysis from the kidney sample. Bcl2 expression was decreased in the sample collected from different group Healthy control, Untreated control, Navi(10 mg/kg oral), Fausidil(10 mg/kg IP), PLGA-Navi(10 mg/kg IV), PLGA-AT2-Navi(10 mg/kg IV) of mice.

In assay [1] the test system is apoptosis in kidney section. Kind of assay: TUNEL assay of kidney section. Format: in vivo, mice. The protocol: This example was an animal study that created a CKD model by injecting 250 mg/kg folic acid intraperitonially (single injection). After 15 days the treatment started. The mice were divided in 5 groups of untreated, healthy, Fausidil, PLGA-Navitoclax, and PLGA-AT2-Navitoclax. FIGS. 9A-9R: Immunohistochemistry (IHC) and TUNEL assay of kidney section. IHC for alpha-SMA protein of different treatment group (A-F). The arrow pointed to the dark dot which represented the alpha-SMA protein. […] The dark dot from FIGS. 9G-9L represented the CTGF protein.

This is an account of results in patent US20230157970A1, “Targeted Therapy of Kidney Fibrosis” (Board of Regents, The University of Texas System, priority 2021, published 2023).

The structures appear in SMILES notation.

For `CC1(C)CCC(c2ccc(Cl)cc2)=C(CN2CCN(c3ccc(C(=O)NS(=O)(=O)c4ccc(N[C@H](CCN5CCOCC5)CSc5ccccc5)c(S(=O)(=O)C(F)(F)F)c4)cc3)CC2)C1` [Navitoclax], the “increase of kidney size after treatment” value in the assay on CKD model was found to be 43.95%. Besides, the Bcl2 expression entry in the assay on Bcl2 is on record as “less expression of bcl2”. In assay [1], the “apoptosis (broken nucleus of DNA) by TUNEL” value is “apoptosis was observed”.
